Assay results taken from ChEMBL document CHEMBL1133824, “Amino acid phosphoramidate nucleosides: potential ADEPT/GDEPT substrates” (2001).

Columns and labels:
Assay type in all cases: functional
[1] = Ratio of GI50 without hPAP/ GI50 with hPAP
[2] = test system: CCRF-CEM; experiment: In vitro concentration required for 50% inhibition of growth of human leukemia cell line CCRF-CEM without hPAP (0.2 unit/mL)
[3] = test system: CCRF-CEM; experiment: In vitro concentration required for 50% inhibition of growth of human leukemia cell line CCRF-CEM with hPAP (0.2 unit/mL)

GI50 [2] [nM]	GI50 [3] [nM]	SMILES	Ratio [1]
2	0.6	O=c1[nH]c(=O)n([C@H]2C[C@H](O)[C@@H](CO)O2)cc1F [FLOXURIDINE]	3.33
90	99.8	Nc1ccn([C@@H]2O[C@H](CO)[C@@H](O)[C@@H]2O)c(=O)n1 [CYTARABINE]	0.902
4830	0.9	COC(=O)[C@H](Cc1c[nH]c2ccccc12)NP(=O)(O)OCC1OC(n2cc(F)c(=O)[nH]c2=O)CC1O (some centres not stated)	5370
463	0.8	COC(=O)[C@H](Cc1ccccc1)NP(=O)(O)OCC1OC(n2cc(F)c(=O)[nH]c2=O)CC1O (some centres not stated)	578
